Consider 3 molecules from US20240383869A1, “ARYLACETYL INHIBITORS OF TG2 AND USES THEREOF” (UNIVERSITY OF OTTAWA, priority 2021, published 2024).

In brackets after ≈: the same amount, converted by molar mass.

Data set [1] deals with T1, hTG2 (Homo sapiens, UniProt P21980).
T1 sequence (P21980 1-687): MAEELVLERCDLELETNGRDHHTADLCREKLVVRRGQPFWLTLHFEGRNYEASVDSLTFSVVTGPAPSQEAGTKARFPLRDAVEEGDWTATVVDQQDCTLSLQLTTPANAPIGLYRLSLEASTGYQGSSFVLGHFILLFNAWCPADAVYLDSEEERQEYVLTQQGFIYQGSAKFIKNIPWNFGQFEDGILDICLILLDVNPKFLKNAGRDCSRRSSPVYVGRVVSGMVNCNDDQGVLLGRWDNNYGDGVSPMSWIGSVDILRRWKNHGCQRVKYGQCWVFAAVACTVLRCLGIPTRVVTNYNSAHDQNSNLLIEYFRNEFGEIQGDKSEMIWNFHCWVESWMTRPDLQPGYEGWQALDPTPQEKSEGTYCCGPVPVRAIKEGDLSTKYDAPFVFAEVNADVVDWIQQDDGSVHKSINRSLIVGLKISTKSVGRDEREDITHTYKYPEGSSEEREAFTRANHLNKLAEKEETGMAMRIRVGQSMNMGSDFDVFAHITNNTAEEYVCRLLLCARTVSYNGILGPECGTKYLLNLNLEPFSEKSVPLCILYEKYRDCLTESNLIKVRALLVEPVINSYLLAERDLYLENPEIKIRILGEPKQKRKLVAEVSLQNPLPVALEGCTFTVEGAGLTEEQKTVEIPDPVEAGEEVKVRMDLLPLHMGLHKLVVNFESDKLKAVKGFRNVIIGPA
To be noted: shown previously; cited from earlier work.

The target in data set [2] is T1, hTG2. The data set can be described thus: In vitro GTP binding assay (BODIPY GTP-γ-S fluorescence). To be noted: inhibitor 2×KI, 30 minutes at 25° C.; 3 μM BODIPY GTP-γ-S. How it is done:
Previously we proposed a mechanism of action for the NC9, VA4 and AA9 inhibitors based on their ability to react covalently with the open conformation of TG2, locking the enzyme in that conformation and thereby abolishing the enzyme's ability to bind GTP and act as a G-protein. […] We used the same in vitro GTP binding assay to measure the ability of representative phenylacetyl inhibitors 67 and 72 to abolish GTP binding, as follows:
In vitro GTP binding assay. GTP binding was measured using a method similar to that reported previously (McEwen, D. P. et al., “Fluorescent BODIPY-GTP analogs: Real-time measurement of nucleotide binding to G proteins.” Anal. Biochem. 2001, 291 (1), 109-117). […] The buffer was then exchanged to 100 mM MOPS (pH=7.0), 1 mM EGTA and 5 mM MgCl2 to remove calcium via dialysis using a 10-kDa molecular weight cut off membrane. The fluorescent GTP analog was added to give a final concentration of 3.0 μM and fluorescence was measured on a microplate reader after 10 minutes of incubation (Ex/Em: 490/520 nm).

A further data set can be described thus: Kinetic solubility. In kind it is physicochemical. To be noted: kinetic from dmso stock.
The test system of the next data set is P-gp (MDR1). In words: MDCK-MDR1 permeability. Type of data set: in vitro ADME. To be noted: dog, MDCK-MDR1.

For the molecule `C=CC(=O)NCCCC[C@H](NC(=O)OCc1ccccc1)C(=O)N1CCN(C(=O)c2cccc3ccccc23)CC1` [AA9, reference compound], the “suppression of TG2 binding of GTP-γ-S-FL BODIPY” value on hTG2 [1] was “suppress the ability of TG2 to bind GTP-γ-S-FL BODIPY”. For the molecule `C=CC(=O)NCCCC[C@H](NC(=O)Cc1ccccc1F)C(=O)N1CCN(C(=O)c2cccc3ccccc23)CC1` [Inhibitor 72, (S)-N-(6-(4-(1-naphthoyl)piperazin-1-yl)-5-(2-(2-fluorophenyl)acetamido)-6-oxohexyl)acrylamide], the “inhibition of GTP binding of hTG2” value on hTG2 [2] was “abolished the GTP binding ability”.

In general, kinetic solubility refers to the concentration staying in solution when a stock, usually in DMSO, is diluted into the medium. One may read the efflux ratio as a quotient of directional permeabilities that is used to spot active efflux. In “Kinetic solubility”, `C=CC(=O)NCCCC[C@H](NC(=O)Cc1ccccc1C)C(=O)N1CCN(C(=O)c2cccc3ccccc23)CC1` [Inhibitor 74, (S)-N-(6-(4-(1-naphthoyl)piperazin-1-yl)-5-(2-(2-methylphenyl)acetamido)-6-oxohexyl)acrylamide] returned a solubility (kinetic) of 39 µM (≈ 21.6 µg/mL). For the same molecule, in the data set with P-gp (MDR1), the efflux ratio was greater than 50.
